Data reported in article PMC12043106, “Insight into antistaphylococcal effect of chlorinated 1-hydroxynaphthalene-2-carboxanilides” (ADMET & DMPK, 2025).
≈ marks a conversion by molar mass, not a printed value. Where “and” joins values, the source holds several entries; their conditions need not be identical. Identical values can stand only once.

system: not listed separately; assay: Lipophilicity determination by HPLC (capacity factor k, distribution coefficients DpH); type: physicochemical; details: MeOH 72 % / H2O 28 %, C18
Description: An HPLC system Agilent 1200 equipped with a DAD detector (Agilent, Santa Clara, CA, USA) was used. A chromatographic column Symmetry® C18 5 μm, 4.6×250 mm, part No. WAT054275 (Waters Corp., Milford, MA, USA) was used. The HPLC separation process was monitored and evaluated with EZChrom Elite software ver. 3.3.2 [53] (Agilent). Isocratic elution by a mixture of MeOH p.a. (72 %) and H2O-HPLC Mili-Q grade (28 %) as a mobile phase was used for the determination of capacity factor k. Isocratic elution by a mixture of MeOH p.a. (72 %) and acetate-buffered saline (pH 7.4 and pH 6.5) (28 %) as a mobile phase was used for the determination of distribution coefficients expressed as D7.4 and D6.5. The total flow of the column was 1.0 mL/min, the injection volume was 20 μL, the column temperature was 40 °C, and the sample temperature was 10 °C. The detection wavelength of 210 nm was chosen. A KI methanolic solution was used for the determination of the dead times (tD). Retention times (tR) were measured in minutes. The capacity factors k were calculated according to the formula k = (tR−tD)/tD, where tR is the retention time of the solute, and tD is the dead time obtained using an unretained analyte. The distribution coefficients DpH were calculated according to the formula DpH = (tR−tD)/tD. Each experiment was repeated three times.

log k	Compound
0.6084	O=C(Nc1ccccc1)c1ccc2ccccc2c1O [Compound 1]
1.2387	O=C(Nc1cc(Cl)c(Cl)c(Cl)c1)c1ccc2ccccc2c1O [Compound 13, N-(3,4,5-trichlorophenyl)-1-hydroxynaphthalene-2--carboxamide]

More lines, now with the values behind:

Compound	log k
O=C(Nc1cccc(Cl)c1Cl)c1ccc2ccccc2c1O [Compound 5]	0.6838
O=C(Nc1c(Cl)cccc1Cl)c1ccc2ccccc2c1O [Compound 8, N-(2,6-dichlorophenyl)-1-hydroxynaphthalene-2-carboxamide]	0.5729
O=C(Nc1cc(Cl)cc(Cl)c1)c1ccc2ccccc2c1O [Compound 10, N-(3,5-dichlorophenyl)-1-hydroxynaphthalene-2-carboxamide]	0.9704

same assay, conditions: MeOH 72 % / acetate-buffered saline pH 6.5 28 %

log D6.5	Compound
0.5139	O=C(Nc1ccccc1)c1ccc2ccccc2c1O [Compound 1]
1.0960	O=C(Nc1cc(Cl)c(Cl)c(Cl)c1)c1ccc2ccccc2c1O [Compound 13, N-(3,4,5-trichlorophenyl)-1-hydroxynaphthalene-2--carboxamide]

Further lines, the molecule ahead of its results:

Compound	log D6.5
O=C(Nc1cccc(Cl)c1Cl)c1ccc2ccccc2c1O [Compound 5]	0.4371
O=C(Nc1c(Cl)cccc1Cl)c1ccc2ccccc2c1O [Compound 8, N-(2,6-dichlorophenyl)-1-hydroxynaphthalene-2-carboxamide]	0.4516
O=C(Nc1cc(Cl)cc(Cl)c1)c1ccc2ccccc2c1O [Compound 10, N-(3,5-dichlorophenyl)-1-hydroxynaphthalene-2-carboxamide]	0.9531

same assay, conditions: MeOH 72 % / acetate-buffered saline pH 7.4 28 %

log D7.4	Compound
0.5487	O=C(Nc1ccccc1)c1ccc2ccccc2c1O [Compound 1]
1.0561	O=C(Nc1cc(Cl)c(Cl)c(Cl)c1)c1ccc2ccccc2c1O [Compound 13, N-(3,4,5-trichlorophenyl)-1-hydroxynaphthalene-2--carboxamide]

Second part, the molecule before the results:

Compound	log D7.4
O=C(Nc1cccc(Cl)c1Cl)c1ccc2ccccc2c1O [Compound 5]	0.3870
O=C(Nc1c(Cl)cccc1Cl)c1ccc2ccccc2c1O [Compound 8, N-(2,6-dichlorophenyl)-1-hydroxynaphthalene-2-carboxamide]	0.4594
O=C(Nc1cc(Cl)cc(Cl)c1)c1ccc2ccccc2c1O [Compound 10, N-(3,5-dichlorophenyl)-1-hydroxynaphthalene-2-carboxamide]	0.9306

system: S. aureus ATCC 29213; assay: Antistaphylococcal screening, microtitration broth MIC; type: cell-based, Staphylococcus aureus; details: Staphylococcus aureus, ATCC29213; S. aureus ATCC 29213, 24 h, 37 °C
Description: (§1) In vitro antistaphylococcal activity of the synthesized compounds was evaluated against three clinical isolates of methicillin-resistant S. aureus: clinical isolate of animal origin, MRSA 63718 (Department of Infectious Diseases and Microbiology, Faculty of Veterinary Medicine, University of Veterinary Sciences Brno, Czech Republic), carrying the mecA gene; and MRSA SA 630 and MRSA SA 3202 [54] (National Institute of Public Health, Prague, Czech Republic), both of human origin. […] All isolates were tested for the presence of the mecA gene encoding methicillin resistance. […] Vancomycin-susceptible methicillin-susceptible S. aureus (VS-MSSA) ATCC 29213, obtained from the American Type Culture Collection, was used as the reference and quality control strain. The minimum inhibitory concentrations (MICs) were evaluated by the microtitration broth method according to the CLSI [58, 59] with some modifications. The compounds were dissolved in DMSO (Sigma, St. Louis, MO, USA) to get a concentration […] and diluted in a microtitration plate in a medium Cation Adjusted Mueller-Hinton (CaMH, Oxoid, Basingstoke, UK) to reach the final concentration of 256-0.0625 μg/mL. The plate was inoculated by the tested microorganisms. The final concentration of bacterial cells was 10^5 for bacteria. […] A drug-free control and a sterility control were included. The plates were incubated for 24 h at 37 °C. […] The experiments were repeated three times.

MIC [µM]	Compound
5.72 (≈ 2 µg/mL)	CC1(C)S[C@@H]2[C@H](NC(=O)[C@H](N)c3ccccc3)C(=O)N2[C@H]1C(=O)O [APC, ampicillin, reference compound]
> 972	O=C(Nc1ccccc1)c1ccc2ccccc2c1O [Compound 1]
698 (≈ 256 µg/mL)	O=C(Nc1cc(Cl)c(Cl)c(Cl)c1)c1ccc2ccccc2c1O [Compound 13, N-(3,4,5-trichlorophenyl)-1-hydroxynaphthalene-2--carboxamide]

The remaining lines, values behind:

Compound	MIC [µM]
O=C(Nc1cccc(Cl)c1Cl)c1ccc2ccccc2c1O [Compound 5]	770 (≈ 256 µg/mL)
O=C(Nc1c(Cl)cccc1Cl)c1ccc2ccccc2c1O [Compound 8, N-(2,6-dichlorophenyl)-1-hydroxynaphthalene-2-carboxamide]	48.2 (≈ 16 µg/mL)
O=C(Nc1cc(Cl)cc(Cl)c1)c1ccc2ccccc2c1O [Compound 10, N-(3,5-dichlorophenyl)-1-hydroxynaphthalene-2-carboxamide]	0.37 (≈ 0.123 µg/mL)

same assay, conditions: susceptible strain and resistant isolates

Compound	Antistaphylococcal activity in words
O=C(Nc1c(Cl)cccc1Cl)c1ccc2ccccc2c1O [Compound 8, N-(2,6-dichlorophenyl)-1-hydroxynaphthalene-2-carboxamide]	Partial activity
O=C(Nc1cc(Cl)cc(Cl)c1)c1ccc2ccccc2c1O [Compound 10, N-(3,5-dichlorophenyl)-1-hydroxynaphthalene-2-carboxamide]	significant antistaphylococcal activity

system: MRSA 63718; assay: as above; type: cell-based, methicillin-resistant S. aureus; details: Staphylococcus aureus; MRSA 63718, 24 h, 37 °C
Description: as §1

MIC [µM]	Compound
45.8 (≈ 16 µg/mL)	CC1(C)S[C@@H]2[C@H](NC(=O)[C@H](N)c3ccccc3)C(=O)N2[C@H]1C(=O)O [APC, ampicillin, reference compound]
> 972	O=C(Nc1ccccc1)c1ccc2ccccc2c1O [Compound 1]
698 (≈ 256 µg/mL)	O=C(Nc1cc(Cl)c(Cl)c(Cl)c1)c1ccc2ccccc2c1O [Compound 13, N-(3,4,5-trichlorophenyl)-1-hydroxynaphthalene-2--carboxamide]

Second part, the molecule before the results:

Compound	MIC [µM]
O=C(Nc1cccc(Cl)c1Cl)c1ccc2ccccc2c1O [Compound 5]	770 (≈ 256 µg/mL)
O=C(Nc1c(Cl)cccc1Cl)c1ccc2ccccc2c1O [Compound 8, N-(2,6-dichlorophenyl)-1-hydroxynaphthalene-2-carboxamide]	48.2 (≈ 16 µg/mL)
O=C(Nc1cc(Cl)cc(Cl)c1)c1ccc2ccccc2c1O [Compound 10, N-(3,5-dichlorophenyl)-1-hydroxynaphthalene-2-carboxamide]	0.37 (≈ 0.123 µg/mL)

system: MRSA SA 3202; assay: as above; type: cell-based, methicillin-resistant S. aureus; details: Staphylococcus aureus; MRSA SA 3202, 24 h, 37 °C
Description: as §1

MIC [µM]	Compound
45.8 (≈ 16 µg/mL)	CC1(C)S[C@@H]2[C@H](NC(=O)[C@H](N)c3ccccc3)C(=O)N2[C@H]1C(=O)O [APC, ampicillin, reference compound]
121 (≈ 31.9 µg/mL)	O=C(Nc1ccccc1)c1ccc2ccccc2c1O [Compound 1]
698 (≈ 256 µg/mL)	O=C(Nc1cc(Cl)c(Cl)c(Cl)c1)c1ccc2ccccc2c1O [Compound 13, N-(3,4,5-trichlorophenyl)-1-hydroxynaphthalene-2--carboxamide]

Second part, the molecule before the results:

Compound	MIC [µM]
O=C(Nc1cccc(Cl)c1Cl)c1ccc2ccccc2c1O [Compound 5]	770 (≈ 256 µg/mL)
O=C(Nc1c(Cl)cccc1Cl)c1ccc2ccccc2c1O [Compound 8, N-(2,6-dichlorophenyl)-1-hydroxynaphthalene-2-carboxamide]	48.2 (≈ 16 µg/mL)
O=C(Nc1cc(Cl)cc(Cl)c1)c1ccc2ccccc2c1O [Compound 10, N-(3,5-dichlorophenyl)-1-hydroxynaphthalene-2-carboxamide]	0.37 (≈ 0.123 µg/mL)

system: MRSA SA 630; assay: as above; type: cell-based, methicillin-resistant S. aureus; details: Staphylococcus aureus; MRSA SA 630, 24 h, 37 °C
Description: as §1

MIC [µM]	Compound
45.8 (≈ 16 µg/mL)	CC1(C)S[C@@H]2[C@H](NC(=O)[C@H](N)c3ccccc3)C(=O)N2[C@H]1C(=O)O [APC, ampicillin, reference compound]
243 (≈ 64 µg/mL)	O=C(Nc1ccccc1)c1ccc2ccccc2c1O [Compound 1]
698 (≈ 256 µg/mL)	O=C(Nc1cc(Cl)c(Cl)c(Cl)c1)c1ccc2ccccc2c1O [Compound 13, N-(3,4,5-trichlorophenyl)-1-hydroxynaphthalene-2--carboxamide]

Second part, the molecule before the results:

Compound	MIC [µM]
O=C(Nc1cccc(Cl)c1Cl)c1ccc2ccccc2c1O [Compound 5]	770 (≈ 256 µg/mL)
O=C(Nc1c(Cl)cccc1Cl)c1ccc2ccccc2c1O [Compound 8, N-(2,6-dichlorophenyl)-1-hydroxynaphthalene-2-carboxamide]	48.2 (≈ 16 µg/mL)
O=C(Nc1cc(Cl)cc(Cl)c1)c1ccc2ccccc2c1O [Compound 10, N-(3,5-dichlorophenyl)-1-hydroxynaphthalene-2-carboxamide]	0.37 (≈ 0.123 µg/mL)

system: S. aureus ATCC 29213; assay: MTT assay (bacterial viability / respiratory activity); type: cell-based, Staphylococcus aureus; details: S. aureus ATCC 29213, MTT
Description: Compounds were prepared as previously stated and diluted in CaMH broth for S. aureus to achieve the desired final concentrations. S. aureus bacterial suspension in sterile distilled water at 0.5 McFarland was diluted 1:3. Inocula were added to each well by multi-inoculator. Diluted […] in broth free from inhibiting compounds were used as the growth control. All compounds were prepared in duplicate. Plates were incubated at 37 °C for 24 h for S. aureus. After the incubation period, 10 % well volume of MTT (3-(4,5-dimethylthiazol-2-yl)-2,5-diphenyltetrazolium bromide) reagent (Sigma) was mixed into each well and incubated at 37 °C for 1 h for S. aureus. Then 100 μL of 17 % sodium dodecyl sulphate in 40 % dimethylformamide was added to each well. The plates were read at 570 nm. The absorbance readings from the cells grown in the presence of the tested compounds were compared with uninhibited cell growth to determine the relative percent inhibition. The percent inhibition was determined through the MTT assay. The percent viability is calculated through the comparison of a measured value and that of the uninhibited control: Viability = (OD570E/OD570P)×100, where OD570E is the reading from the compound-exposed cells, while OD570P is the reading from the uninhibited cells (positive control). Cytotoxic potential is determined by a percent viability of <70 % [60, 61].
The MTT assay can be used to assess cell growth by measuring respiration.

Compound	Concentration: lowest multiple of MIC with at least 70 % inhibition of viability [× MIC]
CC1(C)S[C@@H]2[C@H](NC(=O)[C@H](N)c3ccccc3)C(=O)N2[C@H]1C(=O)O [APC, ampicillin, reference compound]	8
O=C(Nc1cc(Cl)cc(Cl)c1)c1ccc2ccccc2c1O [Compound 10, N-(3,5-dichlorophenyl)-1-hydroxynaphthalene-2-carboxamide]	16

same assay, conditions: S. aureus ATCC 29213, MTT, at the lowest multiple of MIC with at least 70 % inhibition

Compound	S. aureus viability inhibition
CC1(C)S[C@@H]2[C@H](NC(=O)[C@H](N)c3ccccc3)C(=O)N2[C@H]1C(=O)O [APC, ampicillin, reference compound]	90.0%
O=C(Nc1cc(Cl)cc(Cl)c1)c1ccc2ccccc2c1O [Compound 10, N-(3,5-dichlorophenyl)-1-hydroxynaphthalene-2-carboxamide]	96% and 96.5%

system: not listed separately; assay: in vitro; details: not given
Description: Cytotoxicity of the compounds was determined using an LDH assay kit (Roche, Mannheim, Germany) as described previously. Human monocytic leukemia THP-1 cells (European Collection of Cell Cultures, Salisbury, UK) were exposed for 24 h at 37 °C to various compound concentrations ranging from 0.37 to 30 μM in RPMI 1640 medium. For LDH assays, cells were seeded into 96-well plates (5×10^4 cells/well in 100 μL of culture medium) in triplicate in serum-free RPMI 1640 medium and measurements were taken 24 h after the treatment with the compounds. The maximum concentration of DMSO (Sigma) in the assays never exceeded 0.1 %. […] The median lethal dose values, LC50, were deduced through the production of a dose-response curve. All data from three independent experiments were evaluated using GraphPad Prism 5.00 software.

Compound	CC50 at 24 h [nM]
CC1(C)S[C@@H]2[C@H](NC(=O)[C@H](N)c3ccccc3)C(=O)N2[C@H]1C(=O)O [APC, ampicillin, reference compound]	800 ± 100
CC[C@@]1(O)C(=O)OCc2c1cc1n(c2=O)Cc2cc3ccccc3nc2-1 [CMP, camptothecin, reference compound]	160 ± 70
O=C(Nc1c(Cl)cccc1Cl)c1ccc2ccccc2c1O [Compound 8, N-(2,6-dichlorophenyl)-1-hydroxynaphthalene-2-carboxamide]	> 30000
O=C(Nc1cc(Cl)cc(Cl)c1)c1ccc2ccccc2c1O [Compound 10, N-(3,5-dichlorophenyl)-1-hydroxynaphthalene-2-carboxamide]	> 30000

system: Human monocytic leukemia THP-1 cells; assay: not given; design: method as in PMID 24075143; details: tested up to 20 μM, ref [29], read-out: LC50 THP-1; cited from earlier work

Compound	CC50 [nM]
O=C(Nc1ccccc1)c1ccc2ccccc2c1O [Compound 1]	> 20000
